Test results published in ChEMBL document CHEMBL3045019, “Antioxidant and antimicrobial studies of novel N-(substituted-2-chloroquinolin-3-yl)methylidene-4-hydroxy-2H-1,2-benzothiazine-3-carbohydrazides 1,1-dioxides” (2012).
Converted amounts (≈) assume the structure as drawn.

Columns and labels:
Assay type in all cases: functional
[1] = tested on: Fusarium oxysporum; assay: Antifungal activity against Fusarium oxysporum after 3 to 5 days by agar dilution assay
[2] = tested on: Aspergillus niger; assay: Antifungal activity against Aspergillus niger after 3 to 5 days by agar dilution assay
[3] = tested on: Aspergillus flavus; assay: Antifungal activity against Aspergillus flavus after 3 to 5 days by agar dilution assay
[4] = tested on: Siminovitchia fortis; assay: Antibacterial activity against Bacillus fortis after 24 hr by agar dilution assay
[5] = tested on: Bacillus thuringiensis; assay: Antibacterial activity against Bacillus thuringiensis after 24 hr by agar dilution assay
[6] = tested on: Bacillus subtilis; assay: Antibacterial activity against Bacillus subtilis after 24 hr by agar dilution assay
[7] = tested on: Salmonella enterica subsp. enterica serovar Gallinarum; assay: Antibacterial activity against Salmonella enterica subsp. enterica serovar Gallinarum after 24 hr by agar dilution assay
[8] = tested on: Enterobacter cloacae; assay: Antibacterial activity against Enterobacter cloacae after 24 hr by agar dilution assay
[9] = tested on: Escherichia coli; assay: Antibacterial activity against Escherichia coli after 24 hr by agar dilution assay
[10] = Antioxidant activity assessed as superoxide radical scavenging activity by NBT reduction assay relative to control; parameters: concentration or dose not given beside the values

| Compound | MIC [1] [µg/mL] | MIC [2] [µg/mL] | MIC [3] [µg/mL] | MIC [4] [µg/mL] | MIC [5] [µg/mL] | MIC [6] [µg/mL] | MIC [7] [µg/mL] | MIC [8] [µg/mL] | MIC [9] [µg/mL] | Activity [10] [%] |
| --- | --- | --- | --- | --- | --- | --- | --- | --- | --- | --- |
| Cc1cccc2cc(/C=N/NC(=O)C3=C(O)c4ccccc4S(=O)(=O)N3)c(Cl)nc12 | > 1000 | > 1000 | > 1000 | > 1000 | > 1000 | > 1000 | > 1000 | > 1000 | > 1000 | 52.5 |
| Cc1ccc2nc(Cl)c(/C=N/NC(=O)C3=C(O)c4ccccc4S(=O)(=O)N3C)cc2c1 | > 1000 | > 1000 | > 1000 | > 1000 | > 1000 | > 1000 | > 1000 | > 1000 | > 1000 | 51.2 |
| COc1ccc2cc(/C=N/NC(=O)C3=C(O)c4ccccc4S(=O)(=O)N3)c(Cl)nc2c1 | > 200 | > 200 | > 200 | > 100 | > 100 | > 1000 | > 1000 | > 1000 | > 1000 | 72.1 |
| COc1ccc2nc(Cl)c(/C=N/NC(=O)C3=C(O)c4ccccc4S(=O)(=O)N3)cc2c1 | > 500 | > 500 | > 500 | > 100 | > 100 | > 100 | > 1000 | > 1000 | > 1000 | 69.7 |
| Cc1ccc2cc(/C=N/NC(=O)C3=C(O)c4ccccc4S(=O)(=O)N3)c(Cl)nc2c1 | > 1000 | > 1000 | > 1000 | > 1000 | > 1000 | > 1000 | > 1000 | > 1000 | > 1000 | 49.1 |
| Cc1ccc2cc(/C=N/NC(=O)C3=C(O)c4ccccc4S(=O)(=O)N3C)c(Cl)nc2c1 | > 1000 | > 1000 | > 1000 | > 100 | > 100 | > 100 | > 1000 | > 1000 | > 1000 | 51.9 |
| CC1(C)S[C@@H]2[C@H](NC(=O)[C@H](N)c3ccc(O)cc3)C(=O)N2[C@H]1C(=O)O [AMOXICILLIN] | 2 (≈ 5.47 µM) | 2 (≈ 5.47 µM) | 2 (≈ 5.47 µM) | 2 (≈ 5.47 µM) | 6 (≈ 16.4 µM) | 3 (≈ 8.21 µM) | 2 (≈ 5.47 µM) | 2 (≈ 5.47 µM) | 2 (≈ 5.47 µM) |  |
| CN[C@@H]1[C@H](O[C@H]2[C@H](O[C@H]3[C@H](O)[C@@H](O)[C@H](N=C(N)N)[C@@H](O)[C@@H]3N=C(N)N)O[C@@H](C)[C@]2(O)C=O)O[C@@H](CO)[C@H](O)[C@H]1O [STREPTOMYCIN] | 1 (≈ 1.72 µM) | 1 (≈ 1.72 µM) | 0.7 (≈ 1.2 µM) | 0.9 (≈ 1.55 µM) | 3 (≈ 5.16 µM) | 1 (≈ 1.72 µM) | 1 (≈ 1.72 µM) | 1 (≈ 1.72 µM) | 0.7 (≈ 1.2 µM) |  |
| CCCOC(=O)c1cc(O)c(O)c(O)c1 |  |  |  |  |  |  |  |  |  | 91.3 |
| Cc1ccc2nc(Cl)c(/C=N/NC(=O)C3=C(O)c4ccccc4S(=O)(=O)N3)cc2c1 | > 100 | > 100 | > 100 | > 100 | > 100 | > 100 | > 1000 | > 1000 | > 1000 | 51.8 |
| COc1ccc2cc(/C=N/NC(=O)C3=C(O)c4ccccc4S(=O)(=O)N3C)c(Cl)nc2c1 | > 1000 | > 1000 | > 1000 | > 100 | > 100 | > 100 | > 1000 | > 1000 | > 1000 | 65.1 |
| Cc1cccc2cc(/C=N/NC(=O)C3=C(O)c4ccccc4S(=O)(=O)N3C)c(Cl)nc12 | > 1000 | > 1000 | > 1000 | > 1000 | > 1000 | > 1000 | > 1000 | > 1000 | > 1000 | 61.3 |
| COc1ccc2nc(Cl)c(/C=N/NC(=O)C3=C(O)c4ccccc4S(=O)(=O)N3C)cc2c1 | > 100 | > 100 | > 100 | > 200 | > 200 | > 200 | > 1000 | > 1000 | > 1000 | 67.2 |
